Results: the kinase profiling compilation of Christmann-Franck et al. (2016)
Several values for one entry are separate records, joined by “and”; a condition that tells them apart may be missing. Equal values may be shown once.

Columns and labels:
Experiment in all cases: radiometric filter-binding kinase assay, Kinase HotSpot
Settings in all cases: compound 0.5 µM; ATP 10 µM
PTK2B (human) = PTK2B (human) (UniProt Q14289)
MAP3K3 (human) = MAP3K3 (human) (UniProt Q99759)
MARK1 (human) = MARK1 (human) (UniProt Q9P0L2)
STK11 (human) = STK11 (human) (UniProt Q15831)
Chain of STK11 (human) (Q15831 whole entry, looked up): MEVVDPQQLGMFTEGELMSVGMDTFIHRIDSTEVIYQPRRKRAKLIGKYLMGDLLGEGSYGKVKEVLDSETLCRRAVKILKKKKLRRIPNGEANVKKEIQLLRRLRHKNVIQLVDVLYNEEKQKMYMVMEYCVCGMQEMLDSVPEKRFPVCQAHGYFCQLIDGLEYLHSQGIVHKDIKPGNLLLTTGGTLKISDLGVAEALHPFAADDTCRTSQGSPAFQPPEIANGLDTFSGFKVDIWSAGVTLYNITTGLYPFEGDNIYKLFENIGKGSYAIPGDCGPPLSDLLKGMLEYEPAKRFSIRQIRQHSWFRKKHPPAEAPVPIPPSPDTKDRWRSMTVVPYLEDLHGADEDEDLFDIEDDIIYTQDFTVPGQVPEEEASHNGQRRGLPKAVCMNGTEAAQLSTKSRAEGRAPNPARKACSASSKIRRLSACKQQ

CAMK4 (human) = CAMK4 (human) (UniProt Q16566)
Chain of CAMK4 (human) (Q16566 whole entry, looked up): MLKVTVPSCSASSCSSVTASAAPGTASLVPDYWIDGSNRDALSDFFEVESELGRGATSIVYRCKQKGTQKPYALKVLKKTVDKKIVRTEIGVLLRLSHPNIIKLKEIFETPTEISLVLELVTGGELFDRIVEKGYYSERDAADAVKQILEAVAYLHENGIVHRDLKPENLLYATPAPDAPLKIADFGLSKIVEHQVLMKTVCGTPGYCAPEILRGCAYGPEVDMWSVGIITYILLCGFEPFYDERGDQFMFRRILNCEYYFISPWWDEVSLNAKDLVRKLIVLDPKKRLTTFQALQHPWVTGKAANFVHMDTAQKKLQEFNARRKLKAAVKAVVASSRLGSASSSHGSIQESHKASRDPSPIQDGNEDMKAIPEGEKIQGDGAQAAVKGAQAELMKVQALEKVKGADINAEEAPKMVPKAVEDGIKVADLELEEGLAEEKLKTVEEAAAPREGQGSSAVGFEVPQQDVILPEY

ACVRL1 (human) = ACVRL1 (human) (UniProt P37023)
STK10 (human) = STK10 (human) (UniProt O94804)
DYRK4 (human) = DYRK4 (human) (UniProt Q9NR20)
Chain of DYRK4 (human) (Q9NR20 whole entry, looked up): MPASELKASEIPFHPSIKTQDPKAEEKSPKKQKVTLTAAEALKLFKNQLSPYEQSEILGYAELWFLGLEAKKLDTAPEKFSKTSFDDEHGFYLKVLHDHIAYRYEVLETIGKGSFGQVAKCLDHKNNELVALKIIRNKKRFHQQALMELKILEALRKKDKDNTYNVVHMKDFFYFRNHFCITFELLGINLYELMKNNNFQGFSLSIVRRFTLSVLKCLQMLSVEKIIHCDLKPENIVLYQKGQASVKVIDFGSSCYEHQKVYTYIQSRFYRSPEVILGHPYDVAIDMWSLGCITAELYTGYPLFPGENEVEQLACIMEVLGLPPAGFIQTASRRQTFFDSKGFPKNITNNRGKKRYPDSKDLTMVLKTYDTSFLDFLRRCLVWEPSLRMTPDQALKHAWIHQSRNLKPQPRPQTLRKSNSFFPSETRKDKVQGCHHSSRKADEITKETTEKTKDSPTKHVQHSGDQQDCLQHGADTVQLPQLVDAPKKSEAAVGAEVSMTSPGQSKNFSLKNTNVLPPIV

NEK1 (human) = NEK1 (human) (UniProt Q96PY6)
MAP3K9 (human) = MAP3K9 (human) (UniProt P80192)
TNK2 (human) = TNK2 (human) (UniProt Q07912)
CDK4 CCND3 (human) = CDK4 CCND3 (human) (UniProt P30281+P11802)
CDK1 CCNA2 (human) = CDK1 CCNA2 (human) (UniProt P06493+P20248)
Chain of CDK1 CCNA2 (human) (P06493 whole entry, looked up): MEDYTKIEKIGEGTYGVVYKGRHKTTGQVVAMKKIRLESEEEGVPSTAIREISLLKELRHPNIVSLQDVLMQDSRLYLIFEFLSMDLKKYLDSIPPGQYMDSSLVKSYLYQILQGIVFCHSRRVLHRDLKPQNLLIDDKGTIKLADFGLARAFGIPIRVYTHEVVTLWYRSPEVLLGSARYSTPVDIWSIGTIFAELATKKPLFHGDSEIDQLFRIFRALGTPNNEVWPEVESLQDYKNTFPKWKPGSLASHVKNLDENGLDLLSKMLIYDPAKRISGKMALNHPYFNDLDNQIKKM
Chain of CDK1 CCNA2 (human) (P20248 whole entry, looked up): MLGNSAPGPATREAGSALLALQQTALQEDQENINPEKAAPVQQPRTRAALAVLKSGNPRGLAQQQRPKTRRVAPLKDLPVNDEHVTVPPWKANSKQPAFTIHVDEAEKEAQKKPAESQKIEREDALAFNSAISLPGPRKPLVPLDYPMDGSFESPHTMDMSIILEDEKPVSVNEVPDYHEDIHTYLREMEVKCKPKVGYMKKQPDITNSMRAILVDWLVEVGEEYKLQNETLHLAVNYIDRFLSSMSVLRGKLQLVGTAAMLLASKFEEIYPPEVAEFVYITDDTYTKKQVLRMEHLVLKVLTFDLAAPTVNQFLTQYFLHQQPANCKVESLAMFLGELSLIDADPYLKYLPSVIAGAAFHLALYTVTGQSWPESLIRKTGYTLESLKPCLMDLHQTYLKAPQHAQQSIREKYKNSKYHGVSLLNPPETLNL

INSR (human) = INSR (human) (UniProt P06213)
GRK4 (human) = GRK4 (human) (UniProt P32298)
PRKCG (human) = PRKCG (human) (UniProt P05129)
IKBKE (human) = IKBKE (human) (UniProt Q14164)
STK25 (human) = STK25 (human) (UniProt O00506)
BLK (human) = BLK (human) (UniProt P51451)
PHKG2 (human) = PHKG2 (human) (UniProt P15735)
Chain of PHKG2 (human) (P15735 whole entry, looked up): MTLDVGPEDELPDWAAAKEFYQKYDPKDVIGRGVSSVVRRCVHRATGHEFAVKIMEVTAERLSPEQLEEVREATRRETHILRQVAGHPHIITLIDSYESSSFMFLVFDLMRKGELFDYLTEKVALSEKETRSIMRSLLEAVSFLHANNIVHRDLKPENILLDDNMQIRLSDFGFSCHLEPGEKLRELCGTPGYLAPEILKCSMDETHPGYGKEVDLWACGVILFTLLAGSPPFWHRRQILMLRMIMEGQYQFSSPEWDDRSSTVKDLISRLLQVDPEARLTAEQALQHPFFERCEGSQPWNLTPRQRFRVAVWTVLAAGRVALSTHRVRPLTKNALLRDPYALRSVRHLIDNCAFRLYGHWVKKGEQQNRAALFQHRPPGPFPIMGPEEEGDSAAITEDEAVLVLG

LRRK2 (human) = LRRK2 (human) (UniProt Q5S007)
DAPK2 (human) = DAPK2 (human) (UniProt Q9UIK4)
Chain of DAPK2 (human) (Q9UIK4 whole entry, looked up): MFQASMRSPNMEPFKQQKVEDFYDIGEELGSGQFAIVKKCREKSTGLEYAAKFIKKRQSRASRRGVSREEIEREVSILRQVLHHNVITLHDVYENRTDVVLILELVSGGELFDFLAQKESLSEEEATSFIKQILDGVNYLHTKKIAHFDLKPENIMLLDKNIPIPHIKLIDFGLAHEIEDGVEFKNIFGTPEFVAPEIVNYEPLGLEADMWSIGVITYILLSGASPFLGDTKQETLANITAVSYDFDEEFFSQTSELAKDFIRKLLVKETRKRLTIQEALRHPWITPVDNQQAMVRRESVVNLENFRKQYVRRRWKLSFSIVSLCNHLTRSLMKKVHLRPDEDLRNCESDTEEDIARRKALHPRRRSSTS

TSSK1B (human) = TSSK1B (human) (UniProt Q9BXA7)
NEK3 (human) = NEK3 (human) (UniProt P51956)
CSK (human) = CSK (human) (UniProt P41240)
Chain of CSK (human) (P41240 whole entry, looked up): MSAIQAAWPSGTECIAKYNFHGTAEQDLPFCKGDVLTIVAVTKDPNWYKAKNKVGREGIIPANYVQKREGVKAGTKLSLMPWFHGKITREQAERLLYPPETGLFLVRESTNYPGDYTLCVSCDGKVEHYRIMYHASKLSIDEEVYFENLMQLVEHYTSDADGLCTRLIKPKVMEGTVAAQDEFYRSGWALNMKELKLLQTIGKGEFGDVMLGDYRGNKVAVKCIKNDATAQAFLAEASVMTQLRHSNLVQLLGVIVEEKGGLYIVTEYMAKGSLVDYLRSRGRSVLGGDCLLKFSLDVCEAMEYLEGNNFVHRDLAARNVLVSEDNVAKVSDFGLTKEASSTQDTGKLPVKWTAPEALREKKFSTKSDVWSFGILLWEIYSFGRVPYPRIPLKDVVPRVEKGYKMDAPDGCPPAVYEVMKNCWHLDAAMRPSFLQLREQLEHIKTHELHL

STK4 (human) = STK4 (human) (UniProt Q13043)
AURKC (human) = AURKC (human) (UniProt Q9UQB9)
Chain of AURKC (human) (Q9UQB9 whole entry, looked up): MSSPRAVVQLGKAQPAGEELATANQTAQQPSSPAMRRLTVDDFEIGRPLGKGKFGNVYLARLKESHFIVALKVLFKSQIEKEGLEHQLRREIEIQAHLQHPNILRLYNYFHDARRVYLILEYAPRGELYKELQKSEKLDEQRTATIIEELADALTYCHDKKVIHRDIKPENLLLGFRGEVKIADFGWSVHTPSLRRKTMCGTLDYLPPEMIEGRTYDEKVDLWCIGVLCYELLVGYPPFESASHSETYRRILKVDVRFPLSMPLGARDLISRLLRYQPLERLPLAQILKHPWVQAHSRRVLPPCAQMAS

LYN (human) = LYN (human) (UniProt P07948)
Chain of LYN (human) (P07948 whole entry, looked up): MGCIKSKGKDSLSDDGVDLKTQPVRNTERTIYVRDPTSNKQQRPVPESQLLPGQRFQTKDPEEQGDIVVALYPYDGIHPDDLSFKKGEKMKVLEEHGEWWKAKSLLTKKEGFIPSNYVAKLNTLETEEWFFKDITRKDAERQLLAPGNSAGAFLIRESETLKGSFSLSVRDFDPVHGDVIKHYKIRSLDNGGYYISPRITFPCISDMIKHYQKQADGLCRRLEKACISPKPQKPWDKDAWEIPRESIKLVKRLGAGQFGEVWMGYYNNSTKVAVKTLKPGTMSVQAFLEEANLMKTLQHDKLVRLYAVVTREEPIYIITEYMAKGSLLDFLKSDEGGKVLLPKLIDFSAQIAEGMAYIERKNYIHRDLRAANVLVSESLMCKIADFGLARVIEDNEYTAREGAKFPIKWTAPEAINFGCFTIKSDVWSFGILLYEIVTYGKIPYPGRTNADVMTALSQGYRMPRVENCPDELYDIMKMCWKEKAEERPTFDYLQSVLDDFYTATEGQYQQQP

PAK7 (human) = PAK7 (human) (UniProt Q9P286)
CDK4 CCND1 (human) = CDK4 CCND1 (human) (UniProt P24385+P11802)
MARK2 (human) = MARK2 (human) (UniProt Q7KZI7)
EPHA5 (human) = EPHA5 (human) (UniProt P54756)
BMX (human) = BMX (human) (UniProt P51813)
Chain of BMX (human) (P51813 whole entry, looked up): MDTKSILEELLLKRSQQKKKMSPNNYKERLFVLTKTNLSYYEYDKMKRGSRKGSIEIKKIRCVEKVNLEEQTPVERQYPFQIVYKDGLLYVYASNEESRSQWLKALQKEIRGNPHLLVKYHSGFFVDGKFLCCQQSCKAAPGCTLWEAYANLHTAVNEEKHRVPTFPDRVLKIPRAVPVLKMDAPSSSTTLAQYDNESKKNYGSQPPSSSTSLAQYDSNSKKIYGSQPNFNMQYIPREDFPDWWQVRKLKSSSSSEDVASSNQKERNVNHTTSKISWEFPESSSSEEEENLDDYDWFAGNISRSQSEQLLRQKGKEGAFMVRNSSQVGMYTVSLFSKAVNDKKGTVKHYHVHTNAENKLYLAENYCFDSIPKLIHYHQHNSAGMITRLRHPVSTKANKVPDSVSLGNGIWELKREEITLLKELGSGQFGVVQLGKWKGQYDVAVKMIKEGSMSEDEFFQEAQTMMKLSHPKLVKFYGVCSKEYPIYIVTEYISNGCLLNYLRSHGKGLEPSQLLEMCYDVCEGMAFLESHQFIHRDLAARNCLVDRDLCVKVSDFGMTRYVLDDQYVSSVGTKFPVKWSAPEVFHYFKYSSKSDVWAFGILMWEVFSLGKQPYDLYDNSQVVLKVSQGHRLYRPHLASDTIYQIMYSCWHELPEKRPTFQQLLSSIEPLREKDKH

LIMK1 (human) = LIMK1 (human) (UniProt P53667)
PRKCE (human) = PRKCE (human) (UniProt Q02156)
DCLK2 (human) = DCLK2 (human) (UniProt Q8N568)
PASK (human) = PASK (human) (UniProt Q96RG2)
TAOK1 (human) = TAOK1 (human) (UniProt Q7L7X3)
GRK6 (human) = GRK6 (human) (UniProt P43250)
MAP3K11 (human) = MAP3K11 (human) (UniProt Q16584)
NUAK2 (human) = NUAK2 (human) (UniProt Q9H093)
PRKCB1 (human) = PRKCB1 (human) (UniProt P05771)

Oc1ccc(-c2nc(-c3ccc(F)cc3)c(-c3ccncc3)[nH]2)cc1
residual activity (PTK2B (human)): 96.2% | residual activity (MAP3K3 (human)): 103% | residual activity (MARK1 (human)): 101% | residual activity (STK11 (human)): 93.1% | residual activity (CAMK4 (human)): 102% | residual activity (ACVRL1 (human)): 95.4% | residual activity (STK10 (human)): 85% | residual activity (DYRK4 (human)): 101% | residual activity (NEK1 (human)): 98.9% | residual activity (MAP3K9 (human)): 53.1% | residual activity (TNK2 (human)): 83.2% | residual activity (CDK4 CCND3 (human)): 104% | residual activity (CDK1 CCNA2 (human)): 90.9% | residual activity (INSR (human)): 91.5% | residual activity (GRK4 (human)): 98.5% | residual activity (PRKCG (human)): 87.9% | residual activity (IKBKE (human)): 101% | residual activity (STK25 (human)): 115% | residual activity (BLK (human)): 101% | residual activity (PHKG2 (human)): 94.3% | residual activity (LRRK2 (human)): 95.8% | residual activity (DAPK2 (human)): 96.8% | residual activity (TSSK1B (human)): 104% | residual activity (NEK3 (human)): 99.3% | residual activity (CSK (human)): 93.7% | residual activity (STK4 (human)): 105% | residual activity (AURKC (human)): 94.2% | residual activity (LYN (human)): 94.8% and 98.4% | residual activity (PAK7 (human)): 107% | residual activity (CDK4 CCND1 (human)): 105% | residual activity (MARK2 (human)): 99% | residual activity (EPHA5 (human)): 90.7% | residual activity (BMX (human)): 93.9% | residual activity (LIMK1 (human)): 91.4% | residual activity (PRKCE (human)): 96% | residual activity (DCLK2 (human)): 102% | residual activity (PASK (human)): 79.3% | residual activity (TAOK1 (human)): 98.5% | residual activity (GRK6 (human)): 99.7% | residual activity (MAP3K11 (human)): 25.2% | residual activity (NUAK2 (human)): 128% | residual activity (PRKCB1 (human)): 63.7%

CC(C)(C)c1nc2c3ccc(F)cc3c3c(=O)[nH]ccc3c2[nH]1
residual activity (PTK2B (human)): 48.4% | residual activity (MAP3K3 (human)): 61.1% | residual activity (MARK1 (human)): 40.2% | residual activity (STK11 (human)): 58.4% | residual activity (CAMK4 (human)): 81.8% | residual activity (ACVRL1 (human)): 105% | residual activity (STK10 (human)): 72.6% | residual activity (DYRK4 (human)): 104% | residual activity (NEK1 (human)): 49% | residual activity (MAP3K9 (human)): 20.4% | residual activity (TNK2 (human)): 4.36% | residual activity (CDK4 CCND3 (human)): 95.2% | residual activity (CDK1 CCNA2 (human)): 89.4% | residual activity (INSR (human)): 80.6% | residual activity (GRK4 (human)): 74.2% | residual activity (PRKCG (human)): 79.9% | residual activity (IKBKE (human)): 25.4% | residual activity (STK25 (human)): 86.9% | residual activity (BLK (human)): 93.5% | residual activity (PHKG2 (human)): 57.3% | residual activity (LRRK2 (human)): 47.5% | residual activity (DAPK2 (human)): 18% | residual activity (TSSK1B (human)): 37.3% | residual activity (NEK3 (human)): 74.4% | residual activity (CSK (human)): 114% | residual activity (STK4 (human)): 6.84% | residual activity (AURKC (human)): 29.3% | residual activity (LYN (human)): 101% and 95.9% | residual activity (PAK7 (human)): 90.5% | residual activity (CDK4 CCND1 (human)): 85.6% | residual activity (MARK2 (human)): 41.5% | residual activity (EPHA5 (human)): 100% | residual activity (BMX (human)): 71.9% | residual activity (LIMK1 (human)): 73.7% | residual activity (PRKCE (human)): 51.4% | residual activity (DCLK2 (human)): 65.8% | residual activity (PASK (human)): 83.2% | residual activity (TAOK1 (human)): 86.9% | residual activity (GRK6 (human)): 48.2% | residual activity (MAP3K11 (human)): 57% | residual activity (NUAK2 (human)): 66% | residual activity (PRKCB1 (human)): 91.5%
